The values that follow come from patent US20210294217A1, “ACTINIC RAY-SENSITIVE OR RADIATION-SENSITIVE RESIN COMPOSITION, RESIST FILM, PATTERN FORMING METHOD, AND METHOD FOR MANUFACTURING ELECTRONIC DEVICE” (FUJIFILM Corporation, priority 2019, published 2021).

This data set is described as follows: acid dissociation constant pKa determined by computation (ACD/Labs Software Package 1; Gaussian 16 DFT where not calculable). The note with it: acid generated from photoacid generator B. From the text: In the present specification, an acid dissociation constant (pKa) represents a pKa in an aqueous solution, and is specifically a value determined by computation from a value based on a Hammett's substituent constant and database of publicly known literature values, using the following software package 1. Any of the pKa values described in the present specification indicates values determined by computation using the software package.
Software Package 1: Advanced Chemistry Development (ACD/Labs) Software V 8.14 for Solaris (1994-2007 ACD/Labs).
As described above, the pKa in the present specification refers to a value determined by computation from a value based on a Hammett's substituent constant and database of publicly known literature values, using the software package 1, but in a case where the pKa cannot be calculated by the method, a value obtained by Gaussian 16 based on density functional theory (DFT) shall be adopted.
In addition, the pKa in the present specification refers to a “pKa in an aqueous solution” as described above, but in a case where the pKa in an aqueous solution cannot be calculated, a “pKa in a dimethyl sulfoxide (DMSO) solution” shall be adopted.
Furthermore, in the measurement of the acid dissociation constant pKa of an acid generated from the photoacid generator B, specifically, the pKa is a value determined by subjecting a compound formed by substituting each cationic moiety in the compounds B-1 to B-25 with H^+ (for example, in a case of the compound B-1, a compound formed by substituting the triphenylsulfonium cation with H^+) to computation from a value based on a Hammett's substituent constant and database of publicly known literature values, using Software Package 1 of ACD/Labs, as described above. In addition, in a case where pKa could not be calculated by the method, a value obtained by Gaussian 16 based on density functional theory (DFT) was adopted.
In the following table, “pKa1” represents an acid dissociation constant of the first stage, “pKa2” represents an acid dissociation constant of the second stage, and “pKa3” represents an acid dissociation constant of the third stage. A smaller value of pKa means a higher acidity. […]

As for `O=C(O)C(F)(F)C(F)(F)C(F)(F)C(=O)OC12CC3CC(CC(COC(=O)C(F)(F)S(=O)(=O)O)(C3)C1)C2` [B-3], the “Difference between acid dissociation constant a1 and acid dissociation constant a2” value is 2.92. Regarding `O=C(COC(=O)C(F)(F)S(=O)(=O)O)NC(=O)C(F)(F)F` [B-4], the “Difference between acid dissociation constant a1 and acid dissociation constant a2” value is listed as 9.23. `CS(=O)(=O)NC(=O)C(F)(F)C(F)(F)C(F)(F)C(=O)OCC(F)S(=O)(=O)O` (centres unmarked) [B-5]: the “Difference between acid dissociation constant a1 and acid dissociation constant a2” value was 2.55. For `O=C(OCCCS(=O)(=O)O)C(F)(F)S(=O)(=O)O` [B-6] the value was 4.82; for `CC1(C)C2CCC1(CS(=O)(=O)NC(=O)C(F)(F)C(F)(F)C(F)(F)F)C(OC(=O)C(F)S(=O)(=O)O)C2` (centres unmarked) [B-8], 2.20. The same measure for `O=C(O)N1CCN(S(=O)(=O)C(F)(F)C(F)(F)C(F)(F)S(=O)(=O)NS(=O)(=O)C(F)(F)F)CC1` [B-13]: 15.11; for `O=C(O)CCCOC(=O)C(CS(=O)(=O)O)C(F)(F)F` (centres unmarked) [B-14]: 3.63; for `O=C(O)C1CCCCC1C(=O)OCC(F)C(F)(F)S(=O)(=O)O` (centres unmarked) [B-17]: 7.24. The same measure for `O=S(=O)(O)NCCOC1CCCC(C(F)(F)S(=O)(=O)O)C1` (centres unmarked) [B-18]: 3.2; for `O=C(CC(F)(F)F)NS(=O)(=O)C(F)(F)C(F)(F)C(F)(F)S(=O)(=O)NS(=O)(=O)C(F)(F)F` [B-22]: 10.35.

Turning to `O=C(NS(=O)(=O)C(F)(F)C(F)(F)C(F)(F)S(=O)(=O)NS(=O)(=O)C(F)(F)F)c1cc(C(F)(F)F)cc(C(F)(F)F)c1` [B-24], the “Difference between acid dissociation constant a1 and acid dissociation constant a2” value is 9.95.
